Measurements reported in US9340478B2, “Cooling agent and TRPM8 activator” (Kao Corporation, priority 2011, dated 2016).

These compounds were tested against T1, human TRPM8 (Homo sapiens, UniProt Q7Z2W7) (assay: TRPM8 activating action, fluorescent calcium imaging in HEK293 cell line stably expressing human TRPM8). Conditions: HEK293 cells expressing human TRPM8; Fluo4 calcium imaging at 32° C.; 1 nM to 100 μM; Hill's equation fit.
T1 construct: A full-length human TRPM8 gene was amplified from human prostatic tissue total RNA; expressed in transfected cells; host or cells: HEK293
T1 sequence (Q7Z2W7 whole entry): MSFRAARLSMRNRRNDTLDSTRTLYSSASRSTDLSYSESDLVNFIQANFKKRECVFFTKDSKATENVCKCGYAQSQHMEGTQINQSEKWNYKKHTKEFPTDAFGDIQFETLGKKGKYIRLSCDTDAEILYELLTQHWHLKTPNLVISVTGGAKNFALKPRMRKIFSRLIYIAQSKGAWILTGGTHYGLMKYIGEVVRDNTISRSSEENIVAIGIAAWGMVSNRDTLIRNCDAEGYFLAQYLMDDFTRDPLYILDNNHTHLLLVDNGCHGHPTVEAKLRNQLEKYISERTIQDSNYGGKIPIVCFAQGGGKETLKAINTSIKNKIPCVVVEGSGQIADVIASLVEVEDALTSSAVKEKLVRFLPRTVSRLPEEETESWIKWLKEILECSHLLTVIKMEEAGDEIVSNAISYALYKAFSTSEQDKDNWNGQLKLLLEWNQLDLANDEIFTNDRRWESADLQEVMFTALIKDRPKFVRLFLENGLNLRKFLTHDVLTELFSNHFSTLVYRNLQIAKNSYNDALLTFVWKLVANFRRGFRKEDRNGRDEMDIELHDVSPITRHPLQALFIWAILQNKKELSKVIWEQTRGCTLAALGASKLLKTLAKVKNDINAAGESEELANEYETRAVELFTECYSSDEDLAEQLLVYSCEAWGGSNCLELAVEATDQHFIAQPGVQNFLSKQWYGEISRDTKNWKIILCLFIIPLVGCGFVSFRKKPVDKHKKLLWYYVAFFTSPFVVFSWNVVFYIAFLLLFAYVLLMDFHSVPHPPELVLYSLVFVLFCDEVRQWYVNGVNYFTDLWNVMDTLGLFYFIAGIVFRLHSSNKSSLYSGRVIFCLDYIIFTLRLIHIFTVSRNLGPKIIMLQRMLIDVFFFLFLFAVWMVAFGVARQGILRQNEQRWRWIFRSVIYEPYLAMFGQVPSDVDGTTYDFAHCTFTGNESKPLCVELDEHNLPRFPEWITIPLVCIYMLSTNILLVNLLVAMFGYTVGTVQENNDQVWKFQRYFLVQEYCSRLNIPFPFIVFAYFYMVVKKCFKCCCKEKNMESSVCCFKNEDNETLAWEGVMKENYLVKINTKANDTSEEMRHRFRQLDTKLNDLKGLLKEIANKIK
Assay type: cell-based
Method: The EC50 value in connection with the TRPM8 activating action of a test sample was measured according to the following procedure.
(1) Production of Cell Line Stably Expressing Human TRPM8
In order to produce a HEK293 cell line stably expressing human TRPM8, cloning of human TRPM8 gene was carried out. A full-length human TRPM8 gene was amplified from human prostatic tissue total RNA (manufactured by Cosmobio Co., Ltd.) using an RT-PCR method.
The PCR product thus obtained was cloned into an entry vector pENTR-D/TOPO (manufactured by Invitrogen, Inc.), and then was sub-cloned into pCDNA3.2-V5/DEST (manufactured by Invitrogen, Inc.), The vector was transduced into HEK293 cells by means of LIPOFECTAMINE 2000 (manufactured by Invitrogen, Inc.). The transduced cells were proliferated in DMEM medium containing 450 μg/mL of G-418 (Promega Corp.) and screened.
Measurement of the activity of TRPM8 transduced into HEK293 cells was carried out by a fluorescent calcium imaging method.
First, the cultured TRPM8 expressing cells were seeded (30,000 cells/well) in a 96-well plate coated with poly-D-lysine (manufactured by BD Biosciences Co.), the cells were incubated overnight at 37° C., and then the culture fluid was removed. Fluo4-AM liquid (manufactured by Dojindo Molecular Technologies, Inc.; CALCIUM KIT II) was added thereto, and the cells were incubated for 30 to 60 minutes at 37° C. Thereafter, the 96-well plate was mounted on a fluorescence plate reader (FDSS3000; manufactured by Hamamatsu Photonics K.K.), and while the temperature inside the apparatus chamber was maintained at 32° C., a fluorescent image made by Fluo4 when excited at an excitation wavelength of 480 nm, was captured at a detection wavelength of 520 nm using a CCD camera.
Measurement was carried out at every one second for 4 minutes in total. 15 seconds after the initiation of measurement, a test sample (prepared by dissolving each of the compounds indicated in the following Table 1 in ethanol) was added through a dispenser equipped in FDSS3000, and the activity of TRPM8 was evaluated based on the change in fluorescence intensity.
(3) Evaluation of TRPM8 Activation
For the TRPM8 activity, the intrinsic fluorescence was excluded using the following formula, so as to eliminate the influence of intrinsic fluorescence caused by the test sample. Fluorescence intensity excluding intrinsic fluorescence(Fsub)=(Fluorescence intensity of TRPM8 expressing cells at each time point)−{(fluorescence intensity of HEK293 cells at each time point)−(fluorescence intensity of HEK293 cells at the time of measurement initiation)}
Furthermore, the TRPM8 activating action induced by each sample was evaluated using the peak of the fluorescence intensity ratio after the addition of the test sample. The fluorescence intensity ratio was calculated using the following formula. Fluorescence intensity ratio=Fsub at each time point/at the time of measurement initiation
The evaluation was carried out using two wells per each treated group, and the average value was used.
The TRPM8 activating action of each test sample was evaluated at a final concentration in the range of 1 nM to 100 μM, and a dose dependent curve approximating Hill's equation by the least square method was determined.
`C=CCc1cc(OC)c(OC(C)C(OC)c2ccc(O)c(OC)c2)c(OC)c1` (mixture of isomers) [Mixture (18), Δ8′-4-hydroxy-3,3′,5′,7-tetramethoxy-8-O-4′-neolignan] was tested, and the EC50 was 2410 nM.
`C=CCc1cc(OC)c(O[C@@H](C)[C@H](OCCCC)c2ccc(O)c(OC)c2)c(OC)c1` (relative stereo) [Erythro-form (19), Erythro-Δ8′-7-butoxy-4-hydroxy-3,3′,5′-trimethoxy-8-O-4′-neolignan] showed an EC50 of 581 nM.
In the case of `C=CCc1cc(OC)c(O[C@@H](C)[C@H](OC(C)=O)c2ccc(O)c(OC)c2)c(OC)c1` (relative stereo) [Erythro-form (23), erythro-Δ8′-7-acetyl-4-hydroxy-3,3′,5′-trimethoxy-8-O-4′-neolignan], the EC50 is reported as 2600 nM.
Work on `C=CCc1cc(OC)c(O[C@H](C)[C@H](OCCCC)c2ccc(O)c(OC)c2)c(OC)c1` (relative stereo) [Threo-form (20), Threo-Δ8′-7-butoxy-4-hydroxy-3,3′,5′-trimethoxy-8-O-4′-neolignan] yielded an EC50 of 43 nM.
Compound `C=CCc1cc(OC)c(OC(C)C(OCC)c2ccc(O)c(OC)c2)c(OC)c1` (single isomer, unassigned) [Erythro-form (1), erythro-Δ8′-7-ethoxy-4-hydroxy-3,3′,5′-trimethoxy-8-O-4′-neolignan] has an EC50 of 1570 nM.
For `C=CCc1cc(OC)c(OC(C)C(OCC)c2ccc(O)c(OC)c2)c(OC)c1` (single isomer, unassigned) [Threo-form (2), threo-Δ8′-7-ethoxy-4-hydroxy-3,3′,5′-trimethoxy-8-O-4′-neolignan], the EC50 was 199 nM.
In the case of `C=CCc1cc(OC)c(O[C@H](C)[C@H](OCC)c2ccc(O)c(OC)c2)c(OC)c1` [7R8R-form (2a), (7R,8R)-Δ8′-7-ethoxy-4-hydroxy-3,3′,5′-trimethoxy-8-O-4′-neolignan], the EC50 is reported as 610 nM.
Work on `C=CCc1cc(OC)c(O[C@@H](C)[C@H](OCC)c2ccc(O)c(OC)c2)c(OC)c1` [7R8S-form (1a), (7R,8S)-Δ8′-7-ethoxy-4-hydroxy-3,3′,5-trimethoxy-8-O-4′-neolignan] yielded an EC50 of 1230 nM.
`C=CCc1cc(OC)c(O[C@H](C)[C@@H](OCC)c2ccc(O)c(OC)c2)c(OC)c1` [7S8R-form (1b), (7S,8R)-Δ8′-7-ethoxy-4-hydroxy-3,3′,5′-trimethoxy-8-O-4′-neolignan] showed an EC50 of 981 nM.
Work on `C=CCc1cc(OC)c(O[C@@H](C)[C@@H](OCC)c2ccc(O)c(OC)c2)c(OC)c1` [7S8S-form (2b), (7S,8S)-Δ8′-7-ethoxy-4-hydroxy-3,3′,5′-trimethoxy-8-O-4′-neolignan] yielded an EC50 of 87 nM.
`C=CCc1cc(OC)c(OC(C)C(OCC)c2ccc(O)c(OC)c2)c(OC)c1` (centres unmarked) [Mixture (15), Δ8′-7-ethoxy-4-hydroxy-3,3′,5′-trimethoxy-8-O-4′-neolignan] was tested, and the EC50 was 309 nM.
For `C=CCc1cc(OC)c(OC(C)C(OC(C)C)c2ccc(O)c(OC)c2)c(OC)c1` (centres unmarked) [Mixture (24), Δ8′-7-isopropoxy-4-hydroxy-3,3′,5′-trimethoxy-8-O-4′-neolignan], the EC50 was 75 nM.
Work on `C=CCc1cc(OC)c(OC(C)C(OCC(C)C)c2ccc(O)c(OC)c2)c(OC)c1` (centres unmarked) [Mixture (25), Δ8′-7-Isobutoxy-4-hydroxy-3,3′,5′-trimethoxy-8-O-4′-neolignan] yielded an EC50 of 113 nM.
Compound `C=CCc1cc(OC)c(OC(C)C(OCCCCCC)c2ccc(O)c(OC)c2)c(OC)c1` (centres unmarked) [Mixture (26), Δ8′-7-Hexoxy-4-hydroxy-3,3′,5′-trimethoxy-8-O-4′-neolignan] has an EC50 of 218 nM.
With `C=CCc1cc(OC)c(OC(C)C(OCCCCCCCC)c2ccc(O)c(OC)c2)c(OC)c1` (centres unmarked) [Mixture (27), Δ8′-7-Octoxy-4-hydroxy-3,3′,5′-trimethoxy-8-O-4′-neolignan] the EC50 was 88 nM.
For `C=CCc1cc(OC)c(OC(C)C(OCCCCCCCCCC)c2ccc(O)c(OC)c2)c(OC)c1` (centres unmarked) [Mixture (28), Δ8′-7-Decoxy-4-hydroxy-3,3′,5′-trimethoxy-8-O-4′-neolignan], the EC50 was 61 nM.
Work on `C=CCc1cc(OC)c(OC(C)C(OC2CCCCC2)c2ccc(O)c(OC)c2)c(OC)c1` (centres unmarked) [Mixture (29), Δ8′-7-Cyclohexoxy-4-hydroxy-3,3′,5′-trimethoxy-8-O-4′-neolignan] yielded an EC50 of 45 nM.
Work on `C=CCc1cc(OC)c(OC(C)C(OCc2ccccc2)c2ccc(O)c(OC)c2)c(OC)c1` (centres unmarked) [Mixture (30), Δ8′-7-Benzyloxy-4-hydroxy-3,3′,5′-trimethoxy-8-O-4′-neolignan] yielded an EC50 of 144 nM.
`C=CCc1cc(OC)c(OC(C)C(OC(C)(C)C)c2ccc(O)c(OC)c2)c(OC)c1` (centres unmarked) [Mixture (31), Δ8′-7-t-Butoxy-4-hydroxy-3,3′,5′-trimethoxy-8-O-4′-neolignan] showed an EC50 of 40 nM.
Work on `C=CCc1cc(OC)c(OC(C)C(OCCOCCCC)c2ccc(O)c(OC)c2)c(OC)c1` (centres unmarked) [Mixture (32), Δ8′-7-Oxybutoxyethyl-4-hydroxy-3,3′,5′-trimethoxy-8-O-4′-neolignan] yielded an EC50 of 131 nM.
`C=CCc1ccc(OC(C)Cc2ccc(O)c(OC)c2)c(OC)c1` (centres unmarked) [Mixture (34), Δ8′-4-Hydroxy-3,3′-dimethoxy-8-O-4′-neolignan] gave an EC50 of 5850 nM.
Compound `C/C=C/c1ccc(OC(C)C(OCC)c2ccc(O)c(OC)c2)c(OC)c1` (centres unmarked) [Mixture (36), Δ8′-7-ethoxy-4-hydroxy-3,3′-dimethoxy-1′-propenyl-8-O-4′-neolignan] has an EC50 of 12200 nM.
`CCOC(c1ccc(O)c(OC)c1)C(C)Oc1ccccc1OC` (centres unmarked) [Mixture (38), 4-[1-ethoxy-2-(2-methoxyphenoxy)propyl]-2-methoxyphenol] was tested, and the EC50 was 56200 nM.
